Values quoted from earlier work in patent US8377904B2, “Composition and method for use in cartilage affecting conditions” (Hill's Pet Nutrition, Inc., priority 2004, dated 2013).

Test system: pain of osteoarthritis

For `C[S+](CC[C@H](N)C(=O)[O-])C[C@H]1O[C@@H](n2cnc3c(N)ncnc32)[C@H](O)[C@@H]1O` (some centres unmarked) [SAMe, S-adenosyl-L methionine], the “Outcome compared with non-steroidal anti-inflammatory medication” value (meta analysis) is listed as “not associated with statistically significant difference in outcomes” and the “effective size in favor of SAMe compared to a placebo” value (one randomized clinical trial) is listed as 0.20.
